{"source": "the supplement of paper PMC10307832", "experiment_in_all_cases": "relative viability (nuclei count vs DMSO), 5 days (fraction); higher = more cells survive", "key": {"NCI-H2087": {"system": "NCI-H2087", "how_it_was_run": "(§1)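 Lung cancer cell lines were pin-tool dosed in 1536-well plates on the day after seeding, with either a lone drug or a fixed anchor-drug dose plus five library-drug doses (not always all listed) in √10 steps. Nuclei were counted on 4× images after 5 days. Relative viability is the ratio of treated-well to vehicle-well nuclei counts, with each value a median of duplicate plates.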"}, "NCI-H727": {"system": "NCI-H727", "how_it_was_run": "as §1"}, "SK-LU-1": {"system": "SK-LU-1", "how_it_was_run": "as §1"}, "LXF-289": {"system": "LXF-289", "how_it_was_run": "as §1"}, "NCI-H3122": {"system": "NCI-H3122", "how_it_was_run": "as §1"}, "RERF-LC-KJ": {"system": "RERF-LC-KJ", "how_it_was_run": "as §1"}, "LCLC-97TM1": {"system": "LCLC-97TM1", "how_it_was_run": "as §1"}, "NCI-H647": {"system": "NCI-H647", "how_it_was_run": "as §1"}, "NCI-H322M": {"system": "NCI-H322M", "how_it_was_run": "as §1"}, "HCC-827": {"system": "HCC-827", "how_it_was_run": "as §1"}, "NCI-H1437": {"system": "NCI-H1437", "how_it_was_run": "as §1"}}, "data": [{"smiles": "Cc1sc2c(c1C)C(c1ccc(Cl)cc1)=N[C@@H](CC(=O)OC(C)(C)C)c1nnc(C)n1-2", "note": "[JQ1] + C[C@]1(O)C[C@@H](c2nc(-c3ccc4ccc(-c5ccccc5)nc4c3)c3c(N)nccn32)C1 [Linsitinib] (partner 1 µM)", "values": [{"measurement": "relative viability", "setting": "NCI-H2087; first compound 0.04 µM", "value": 1.02}, {"measurement": "relative viability", "setting": "NCI-H2087; first compound 0.4 µM", "value": 0.69}, {"measurement": "relative viability", "setting": "NCI-H2087; first compound 1.265 µM", "value": 0.456}, {"measurement": "relative viability", "setting": "NCI-H2087; first compound 4 µM", "value": 0.508}, {"measurement": "relative viability", "setting": "NCI-H727; first compound 0.04 µM", "value": 0.374}, {"measurement": "relative viability", "setting": "NCI-H727; first compound 0.1265 µM", "value": 0.313}, {"measurement": "relative viability", "setting": "NCI-H727; first compound 0.4 µM", "value": 0.343}, {"measurement": "relative viability", "setting": "NCI-H727; first compound 1.265 µM", "value": 0.244}, {"measurement": "relative viability", "setting": "NCI-H727; first compound 4 µM", "value": 0.234}, {"measurement": "relative viability", "setting": "SK-LU-1; first compound 0.04 µM", "value": 1.16}, {"measurement": "relative viability", "setting": "SK-LU-1; first compound 0.1265 µM", "value": 0.952}, {"measurement": "relative viability", "setting": "SK-LU-1; first compound 0.4 µM", "value": 0.782}, {"measurement": "relative viability", "setting": "SK-LU-1; first compound 1.265 µM", "value": 0.239}, {"measurement": "relative viability", "setting": "SK-LU-1; first compound 4 µM", "value": 0.178}, {"measurement": "relative viability", "setting": "LXF-289; first compound 0.04 µM", "value": 0.986}, {"measurement": "relative viability", "setting": "LXF-289; first compound 0.1265 µM", "value": 0.968}, {"measurement": "relative viability", "setting": "LXF-289; first compound 0.4 µM", "value": 0.903}, {"measurement": "relative viability", "setting": "LXF-289; first compound 1.265 µM", "value": 0.761}, {"measurement": "relative viability", "setting": "LXF-289; first compound 4 µM", "value": 0.34}, {"measurement": "relative viability", "setting": "NCI-H3122; first compound 0.04 µM", "value": 0.966}, {"measurement": "relative viability", "setting": "NCI-H3122; first compound 0.1265 µM", "value": 0.931}, {"measurement": "relative viability", "setting": "NCI-H3122; first compound 0.4 µM", "value": 0.97}, {"measurement": "relative viability", "setting": "NCI-H3122; first compound 1.265 µM", "value": 0.757}, {"measurement": "relative viability", "setting": "NCI-H3122; first compound 4 µM", "value": 0.625}, {"measurement": "relative viability", "setting": "RERF-LC-KJ; first compound 0.04 µM", "value": 0.865}, {"measurement": "relative viability", "setting": "RERF-LC-KJ; first compound 0.1265 µM", "value": 1.07}, {"measurement": "relative viability", "setting": "RERF-LC-KJ; first compound 0.4 µM", "value": 0.91}, {"measurement": "relative viability", "setting": "RERF-LC-KJ; first compound 1.265 µM", "value": 0.782}, {"measurement": "relative viability", "setting": "RERF-LC-KJ; first compound 4 µM", "value": 0.631}, {"measurement": "relative viability", "setting": "LCLC-97TM1; first compound 0.1265 µM", "value": 0.181}, {"measurement": "relative viability", "setting": "LCLC-97TM1; first compound 0.4 µM", "value": 0.212}, {"measurement": "relative viability", "setting": "LCLC-97TM1; first compound 1.265 µM", "value": 0.125}, {"measurement": "relative viability", "setting": "LCLC-97TM1; first compound 4 µM", "value": 0.156}, {"measurement": "relative viability", "setting": "NCI-H647; first compound 0.04 µM", "value": 1.12}, {"measurement": "relative viability", "setting": "NCI-H647; first compound 0.1265 µM", "value": 0.754}, {"measurement": "relative viability", "setting": "NCI-H647; first compound 0.4 µM", "value": 0.568}, {"measurement": "relative viability", "setting": "NCI-H647; first compound 1.265 µM", "value": 0.151}, {"measurement": "relative viability", "setting": "NCI-H647; first compound 4 µM", "value": 0.16}, {"measurement": "relative viability", "setting": "NCI-H322M; first compound 0.04 µM", "value": 0.546}, {"measurement": "relative viability", "setting": "NCI-H322M; first compound 0.1265 µM", "value": 0.935}, {"measurement": "relative viability", "setting": "NCI-H322M; first compound 0.4 µM", "value": 0.874}, {"measurement": "relative viability", "setting": "NCI-H322M; first compound 1.265 µM", "value": 0.474}, {"measurement": "relative viability", "setting": "NCI-H322M; first compound 4 µM", "value": 0.462}, {"measurement": "relative viability", "setting": "HCC-827; first compound 0.04 µM", "value": 0.921}, {"measurement": "relative viability", "setting": "HCC-827; first compound 0.4 µM", "value": 1.16}, {"measurement": "relative viability", "setting": "HCC-827; first compound 1.265 µM", "value": 0.958}, {"measurement": "relative viability", "setting": "HCC-827; first compound 4 µM", "value": 0.862}, {"measurement": "relative viability", "setting": "NCI-H1437; first compound 0.04 µM", "value": 0.897}, {"measurement": "relative viability", "setting": "NCI-H1437; first compound 0.1265 µM", "value": 0.804}, {"measurement": "relative viability", "setting": "NCI-H1437; first compound 0.4 µM", "value": 0.481}]}]}
